# Experimental data from PMC8449414, “Rational design of ASCT2 inhibitors using an integrated experimental-computational approach” (Proceedings of the National Academy of Sciences of the …, 2021).
# Tests used:
# Format in all cases: cell-based
# rASCT2 [1] = biological target: T1, rASCT2 (Rattus norvegicus, UniProt D3ZJ25); assay: Electrophysiology: inhibition of leak anion current in transfected HEK293 cells; conditions: for inhibition of the leak anion current (in words): concentration range tested up to 200 µM, Ki could not be obtained; for Km: substrate dose response of anion current, rat ASCT2-expressing HEK293 cells, read-out: apparent Km
# T1 construct: expressed in transfected cells; host or cells: HEK293 (ATCC CRL-11268), transient transfection
# T1 sequence (D3ZJ25 1-555): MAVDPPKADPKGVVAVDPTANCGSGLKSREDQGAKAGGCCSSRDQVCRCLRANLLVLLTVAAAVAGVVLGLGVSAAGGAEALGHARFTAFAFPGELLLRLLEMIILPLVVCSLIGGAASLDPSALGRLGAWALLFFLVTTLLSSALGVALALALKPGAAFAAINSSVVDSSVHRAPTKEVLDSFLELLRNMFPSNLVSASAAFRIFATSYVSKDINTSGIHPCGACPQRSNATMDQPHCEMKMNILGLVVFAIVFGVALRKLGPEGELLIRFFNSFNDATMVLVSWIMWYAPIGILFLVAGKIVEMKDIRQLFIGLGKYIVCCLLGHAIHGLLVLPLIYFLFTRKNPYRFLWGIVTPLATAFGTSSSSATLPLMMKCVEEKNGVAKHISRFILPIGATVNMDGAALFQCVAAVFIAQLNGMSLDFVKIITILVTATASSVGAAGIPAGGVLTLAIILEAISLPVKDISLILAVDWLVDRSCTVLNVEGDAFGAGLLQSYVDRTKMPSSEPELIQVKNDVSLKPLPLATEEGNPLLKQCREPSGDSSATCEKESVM
# Experimental: (§1) Cell culture and transfection
# (§2) Human embryonic kidney 293 (HEK293, ATCC CRL -11268) cells were cultured in DMEM media supplemented with 10% (v/v) fetal bovine serum (FBS), 2 mM glutamine, 1% penicillin streptomycin solution, 1 mM sodium pyruvate and non -essential amino acids. Cells were maintained at 370C in a fully humidified atmosphere containing 5% CO2. rASCT2, hASCT2, hASCT1, EAAT1, EAAT2, EAAT3, EAAT5 and YFP complementary DNAs were each used to transiently transfect HEK293 using POLYPLUS Jet-prime transfection reagent. Cells were analyzed using electrophysiological techniques 24-40 hours after transfection.
# (§3) Electrophysiological techniques
# (§4) Electrophysiological experiments were performed as described previously 1,2. Stock solutions of inhibitor was prepared in dimethyl sulfoxide (DMSO) up to 100 mM.
# (§5) Dilutions to working concentrations were made using external buffer. The highest
# hASCT2 = biological target: T2, hASCT2 (Homo sapiens, UniProt Q15758); assay: as above; conditions: HEK293 cells, 0 mV, 130 mM NaSCN internal, 140 mM NaCl external; No current = no inhibition of anion leak current up to highest concentration tested (§ 20-50, || 100-400, # 1500-2500 µM); read-out: Binding affinity Ki (apparent Ki)
# T2 construct: expressed in transfected cells; host or cells: HEK293 (ATCC CRL-11268), transient transfection
# T2 sequence (Q15758 1-541): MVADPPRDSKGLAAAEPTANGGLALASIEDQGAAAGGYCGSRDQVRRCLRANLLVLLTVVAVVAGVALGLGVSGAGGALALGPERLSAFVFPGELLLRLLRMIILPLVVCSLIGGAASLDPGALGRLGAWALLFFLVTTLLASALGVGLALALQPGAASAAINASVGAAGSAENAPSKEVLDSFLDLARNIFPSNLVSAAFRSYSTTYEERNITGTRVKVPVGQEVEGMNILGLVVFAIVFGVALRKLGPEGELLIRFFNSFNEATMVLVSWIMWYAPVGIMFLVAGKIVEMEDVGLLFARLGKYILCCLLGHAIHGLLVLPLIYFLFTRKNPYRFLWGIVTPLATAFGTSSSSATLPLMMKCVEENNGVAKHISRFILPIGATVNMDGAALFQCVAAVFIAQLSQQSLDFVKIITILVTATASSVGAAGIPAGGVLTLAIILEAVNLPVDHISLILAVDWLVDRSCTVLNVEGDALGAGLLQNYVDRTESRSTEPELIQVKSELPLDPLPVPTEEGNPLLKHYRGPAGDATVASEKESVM
# Experimental: as §1, §2, §3, §4, §5
# rASCT2 [2] = biological target: T1, rASCT2; assay: Inhibitor dissociation kinetics by ligand displacement with alanine (rapid solution exchange); conditions: 5 mM alanine rapidly applied, no inhibitor (control), 0 mV
# Experimental: Fig. 2. […] (A) Electrophysiological recordings obtained after application of alanine (red trace) and increasing concentrations of Lc-BPE (black traces). The times of application of alanine or Lc-BPE are shown by a gray bar (top). (B and C) Lc-BPE inhibitor dose–response relationships for rASCT2 and hASCT2, respectively. […] Currents were normalized to the current recorded after application of 10 µM inhibitor concentration. (D) Inhibition of glutamine uptake (5 µM external concentration) in the presence of varying concentration of Lc-BPE and 5 µM glutamine measured in proteoliposomes reconstituted with purified hASCT2. […] Errors bars represent SEM from at least two biologically independent measurements. (E) Current recorded after rapid solution exchange from extracellular buffer (control, gray bar, black trace) to a solution containing buffer + 5 mM alanine (white bar). For the red trace, the cell was preincubated with 10 µM Lc-BPE (red bar, red trace) followed by rapid application of 5 mM alanine. All current recordings were performed at 0 mV in the presence of 130 mM NaSCN internal and 140 mM NaCl external (homoexchange) solutions. […]
# To test this, we measured the dissociation kinetics of Lc-BPE using a ligand displacement approach. First, rASCT2-expressing cells were preincubated with a saturating solution of Lc-BPE (10 µM), and subsequently the inhibitor was displaced using a supersaturating concentration of the substrate L-alanine (5 mM) (Fig. 2 E and F).
Km (rASCT2 [1]; 0 mV),SMILES,inhibition of the leak anion current (in words) (rASCT2 [1]),also measured
,O=C(O[C@H]1CN[C@@H](C(=O)O)C1)c1ccc(-c2ccccc2)cc1 [Dc-BPE],too small at high compound concentrations,
,O=C(O[C@@H]1CN[C@@H](C(=O)O)C1)c1ccc(-c2ccccc2)cc1 [Dt-BPE],unspecific,
,O=C(O[C@H]1CN[C@H](C(=O)O)C1)c1ccc(-c2ccccc2)cc1 [Lt-BPE],,"Ki (hASCT2): 205 ± 27 µM; Ki (rASCT2 [1]; HEK293 cells, 0 mV, 130 mM NaSCN internal, 140 mM NaCl external, No current = no inhibition of anion leak current up to highest concentration tested (§ 20-50, || 100-400, # 1500-2500 µM), read-out: Binding affinity Ki (apparent Ki)): 232 ± 44 µM"
318 ± 17 µM,"C[C@H](N)C(=O)O [alanine, L-alanine, reference compound]",,rate constant of the current rise (rASCT2 [2]): 24.6 ± 5.2 s⁻¹; rate constant of the current rise (rASCT2 [2]; listed as Alanine): 24 s⁻¹
233 ± 41 µM,"NC(=O)CC[C@H](N)C(=O)O [glutamine, L-glutamine, reference compound]",,
